Measurements published in ChEMBL document CHEMBL1201862, “PubChem BioAssay data set” (2004).
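Assay format: 96-well plates, 48-hour exposure. GI50 marks 50% less growth.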 Active and inactive are the calls of the source. Rule as the data show it: active = GI50 up to about 1.1 µM and inactive = higher.

Assays:
Assay in all cases: NCI tumour cell line growth inhibition, 48 h
786-0 = test system: 786-0
EKVX = test system: EKVX
HCC 2998 = test system: HCC 2998
HCT-116 = test system: HCT-116
K562 = test system: K562
MDA-MB-435 = test system: MDA-MB-435
MDA-N = test system: MDA-N
MOLT-4 = test system: MOLT-4
OVCAR-3 = test system: OVCAR-3
OVCAR-4 = test system: OVCAR-4
OVCAR-5 = test system: OVCAR-5
PC-3 = test system: PC-3
RXF 393 = test system: RXF 393
SF-295 = test system: SF-295
SF-539 = test system: SF-539
SK-MEL-2 = test system: SK-MEL-2
SNB-75 = test system: SNB-75
UACC-257 = test system: UACC-257
UACC-62 = test system: UACC-62
UO-31 = test system: UO-31

Measured: GI50

Oc1ncc(Cl)c(O)n1
inactive: 786-0 > 100 µM | EKVX > 100 µM | HCC 2998 > 100 µM | HCT-116 > 100 µM | K562 > 100 µM | MDA-MB-435 > 100 µM | MDA-N > 100 µM | MOLT-4 > 100 µM | OVCAR-3 > 100 µM | OVCAR-4 > 100 µM | OVCAR-5 > 100 µM | PC-3 > 100 µM | RXF 393 > 100 µM | SF-295 > 100 µM | SF-539 > 100 µM | SK-MEL-2 > 100 µM | SNB-75 > 100 µM | UACC-257 > 100 µM | UACC-62 > 100 µM | UO-31 > 100 µM

C[S+]([O-])c1ncc2c(n1)-c1ccccc1OC2 (stereo not given)
inactive: 786-0 > 100 µM | EKVX 70.1 µM | HCC 2998 38.4 µM | HCT-116 > 100 µM | K562 > 100 µM | MDA-MB-435 > 100 µM | MDA-N > 100 µM | MOLT-4 > 100 µM | OVCAR-3 56.2 µM | OVCAR-4 85.9 µM | OVCAR-5 > 100 µM | PC-3 > 100 µM | RXF 393 > 100 µM | SF-295 > 100 µM | SF-539 > 100 µM | SK-MEL-2 > 100 µM | SNB-75 > 100 µM | UACC-257 40.3 µM | UACC-62 92.3 µM | UO-31 22.3 µM

CC(C)CCC(=O)c1ccoc1 [PERILLAKETONE]
inactive: 786-0 > 100 µM | EKVX > 100 µM | HCC 2998 > 100 µM | HCT-116 > 100 µM | K562 > 100 µM | MDA-MB-435 > 100 µM | MDA-N > 100 µM | MOLT-4 > 100 µM | OVCAR-3 > 100 µM | OVCAR-4 > 100 µM | OVCAR-5 > 100 µM | PC-3 > 100 µM | RXF 393 > 100 µM | SF-295 > 100 µM | SF-539 > 100 µM | SK-MEL-2 > 100 µM | SNB-75 > 100 µM | UACC-257 > 100 µM | UACC-62 > 100 µM | UO-31 > 100 µM
